# From patent US7579462B2, “Process for preparing 17-allyl amino geldanamycin (17-aag) and other ansamycins” (Conforma Therapeutics Corporation, priority 2001, dated 2009)
# Assay: Relative solubility of 17-AAG polymorphs in solvents and oils
# Assay type: physicochemical
# Details: lower melting point form (about 147-153° C.) compared with higher melting point form (about 200-212° C.) of 17-AAG; at room temperature
# Text: Indeed, one aspect of the invention is the ability to form and exploit different polymorphic structures. […] The water may be premixed with the ethanol or later added to the ethanol solution already containing 17-AAG dissolved therein. […] Depending on the end-goal, one may readily convert one form to another simply by dissolving and crystallizing in the appropriate solvent.
smiles,measurement,value
"C=CCNC1=C2C[C@@H](C)C[C@H](OC)[C@H](O)[C@@H](C)/C=C(\C)[C@H](OC(N)=O)[C@@H](OC)/C=C\C=C(/C)C(=O)NC(=CC1=O)C2=O [17-AAG, 17-allylamino-geldanamycin]",solubility in a variety of solvents and oils,more readily soluble
